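Protocol summary: plate cells (96-well), add compound at 5 concentrations, incubate 48 h, interpolate endpoints linearly. GI50 marks 50% less growth. TGI is the concentration that stops growth completely.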 Bounds are passed on as bounds.

Holding throughout (assay): NCI anticancer screen, dose series, 48 h
For experiment [1], the system named is EKVX NSCLC.
Experiment [2] concerns HOP-62 NSCLC.
Experiment [3] has as its system HS 578T breast.
Experiment [4] relates to KM12 colon.
Experiment [5] relates to OVCAR-4 ovarian.
The test system of experiment [6] is OVCAR-8 ovarian.
For experiment [7], the system named is SF-268 CNS.
Experiment [8] relates to SK-OV-3 ovarian.
For experiment [9], the system named is SN12C renal.
Experiment [10] concerns UO-31 renal.

With `CC[C@@H](C)/C=C(C)/C=C/C(=O)c1c(O)c(-c2ccc(O)cc2)cn(O)c1=O`, the GI50 in [1] is 1.6 µM; in experiment [2] it was 0.492 µM; in experiment [3] it was 2.83 µM; in experiment [4], 1.99 µM; in experiment [5], 0.261 µM; in [6], 0.341 µM. Besides, the GI50 is 0.33 µM in [7], 0.642 µM in [8], 0.391 µM in experiment [9] and 0.266 µM in experiment [10]. The TGI in [1] is 13.1 µM; in [2], 14.7 µM; in experiment [3], 34.5 µM; in [4], 12.7 µM; in experiment [5], 12.5 µM; in experiment [6], 12 µM. In addition, the TGI in experiment [7] amounted to 12.3 µM; in experiment [8], 21.7 µM; in experiment [9], 12.3 µM; in [10], 3.68 µM.
For the compound `CC1=CC(C)(C)NN1C1=NS(=O)(=O)c2ccccc2N1C`, the TGI in [1], in experiment [2], in experiment [3], in experiment [4], in [5] and in experiment [6] was more than 100 µM each time. For the same compound, the TGI in [7], in experiment [8], in experiment [9] and in experiment [10] was more than 100 µM throughout.
Take `COC(=O)c1oc2c(C(=O)/C=C/c3ccc(OC)cc3)c(OCCN(C)C)ccc2c1C`: the GI50 in experiment [1] was 6.4 µM; in experiment [2], 20.5 µM; in experiment [3], 6.27 µM; in experiment [4], 9.43 µM; in experiment [5], 5.06 µM; in experiment [6], 4.96 µM. For the same compound, the GI50 was 5.63 µM in [7], 5.14 µM in experiment [8], 5.31 µM in [9] and 5.14 µM in experiment [10]. In addition, the TGI in experiment [1] is 19 µM; in [2] it was 38.7 µM; in [3] it was 22.4 µM; in experiment [4], 24.5 µM; in experiment [5] it was 16.8 µM; in [6], 21.5 µM. Moreover, the TGI was found to be 20.5 µM in [7], 17.8 µM in [8], 20.4 µM in experiment [9] and 18.2 µM in [10].
In the case of `C=CCC(N[C@@H](CO)c1ccccc1)c1cn(C(=O)OCC)c2ccccc12` (stereo not given in full), the GI50 in [1] was 35.3 µM; in experiment [2], 20.4 µM; in experiment [3], 21 µM; in experiment [4], 15.2 µM; in [5], 81.5 µM; in [6], 31.7 µM. For the same compound, the GI50 was 23 µM in [7], 49.1 µM in experiment [8], 21.4 µM in experiment [9] and 32.3 µM in experiment [10]. The TGI in experiment [1] is more than 100 µM; in [2], 45.8 µM; in experiment [3], 40.3 µM; in [4] it was 33.6 µM; in [5], more than 100 µM; in experiment [6], more than 100 µM. Also, the TGI in [7] was 54.5 µM; in [8], more than 100 µM; in experiment [9], 39.2 µM; in [10], more than 100 µM.
For the compound `Cn1cc(-c2cnn3c(N)c(Br)c(C4CCCNC4)nc23)cn1` (stereo not given), the GI50 was 10.4 µM in experiment [1]; 6.69 µM in experiment [2]; 4 µM in experiment [3]; 3.69 µM in experiment [4]; 14.6 µM in [5]; 5.87 µM in experiment [6]. Besides, the GI50 is 15.2 µM in experiment [7], 4.06 µM in experiment [8], 3.86 µM in [9] and 4.63 µM in experiment [10]. Moreover, the TGI in experiment [1] is 70 µM; in [2], more than 100 µM; in experiment [3], more than 72.3 µM; in experiment [4] it was 44.7 µM; in experiment [5], 96.1 µM; in experiment [6] it was more than 100 µM. In addition, the TGI is more than 100 µM in experiment [7], 66.8 µM in experiment [8], 50.6 µM in [9] and more than 78.3 µM in experiment [10].

The values above are taken from PubChem BioAssay (NCI).
